From patent publication US6946253B2, “Herpes zinc finger motifs” (University Court of the University of Glasgow, priority 2000, dated 2005)

Experiments:
[1] = tested on: baby hamster kidney BHK21/C13 cells; assay: Cytotoxicity, Trypan Blue exclusion staining; format: cell-based; details: 100 μM (highest concentration), up to 4 days
Experimental: Cytotoxicity. Both compounds azodicarbonamide (ADA, NSC 674447) and 2,2′,-dithiobisbenzamide (DIBA, NSC 654077) were dissolved at the appropriate concentration in 0.1% (v/v) dimethylsulphoxide (DMSO) in Eagle's modified medium. Confluent monolayers (2×10^6) of baby hamster kidney BHK21/C13 cells were incubated with various concentrations of either ADA or DIBA (1,10,100 μM) or as a control 0.1% (v/v) DMSO, and cell viability determined every day for 4 days by Trypan Blue exclusion staining (23).
Determination or cytotoxicity of ADA and DIBA. In view of the distinctive sequence conservation of the IE63 zinc finger two previously known zinc-ejecting anti-HIV-1 compounds, 2,2′-dithiobisbenzamide (DIBA) and azodicarbonamide (ADA) were tested for their effect on herpesvirus. To separate any effect on cell viability from a specific effect on virus replication, the effect of incubating BHK21/C13 cells in various concentrations of ADA, DIBA, and 0.1% (v/v) DMSO as a control, for up to 4 days was determined. Even at the highest concentration used (100 μM) 95% of the cells were viable compared to untreated BHK21/C13 cells (data not shown). Indeed any cytotoxicity observed was due to the DMSO in which the drugs were dissolved, as the cytotoxicity was equally great in those cells incubated with only DMSO (data not shown).

[2] = tested on: herpes simplex virus type 1 (HSV-1) strain 17; assay: Virus replication (virus yield) in BHK21/C13 cells; format: cell-based; details: moi 5, 24 h pi
Experimental: (§1) Virus replication. Semi-confluent monolayers of BHK21/C13 cells (2×10^6) were pre-incubated with the appropriate drug concentration, 0.1% DMSO (v/v) or mock treated as a control for 24 h and subsequently infected at a multiplicity of infection (moi) of 5 plaque forming units (pfu)/cell with either herpes simplex virus type 1 (HSV-1) strain 17 or HSV-2 strain HG52 and harvested 24 h post-infection (pi). The virus yield was determined by releasing the virus into the supernatant by sonication and titration on BHK21/C13 cells. Results were expressed as pfu/10^6 cells and % reduction in yield as compared to the untreated control (23).
(§2) Antiviral effect of ADA and DIBA. Two experiments were carried out. In the first, the effect of varying concentrations of ADA and DIBA on the replication of HSV-1 was analysed. In the second, the effect on both HSV-1 and HSV-2 was determined.

HSV-2 strain HG52 = assay: Virus replication (virus yield) in BHK21/C13 cells; format: cell-based, herpes simplex virus type 2; details: experiment 2 (Table 2), moi 5, 24 h pi
Experimental: as §1, §2

HSV-1 = assay: Plaque reduction assay in BHK21/C13 cells; format: cell-based, herpes simplex virus type 1; details: HSV-1, plaque reduction assay
Experimental: (§3) Plaque reduction assay. Confluent monolayers (4×10^6 cells) of BHK21/C13 cells were preincubated with the appropriate drug concentration, 0.1% DMSO(v/v) or mock treated as a control for 24 h and subsequently infected at a moi of 400 pfu/plate with either HSV-1 or HSV-2 and incubated for 48 h at 37° C. […] Tests of each drug concentration were performed in triplicate and the average of the 3 plates calculated. Results were expressed as pfu/plate and % of the number of plaques on the untreated control plates (23).
(§4) Plaquing Efficiency in the Presence of ADA and DIBA. To determine if the reduction in virus yield seen in the previous experiment was due to a virucidal effect, inhibition of virus entry (adsorption penetration) or intracellular replication, a plaque reduction assay was carried out. Here, the ability of the virus to plaque was measured. An effect on the stability of the virus particle or virus entry would lead to a reduction in the number of plaques compared to the control untreated plates for a given amount of virus. In contrast, an effect on intracellular virus replication would not lead to a significant reduction in plaques.

HSV-2 = assay: Plaque reduction assay in BHK21/C13 cells; format: cell-based, herpes simplex virus type 2; details: HSV-2, plaque reduction assay
Experimental: as §3, with “Results were expressed as pfu/plate and % of the number of plaques on the untreated control plates (23).” left out
as §4

[3] = experiment 1 (Table 1), HSV-1, 1 μM
[4] = experiment 1 (Table 1), HSV-1, 10 μM
[5] = experiment 1 (Table 1), HSV-1, 100 μM
[6] = experiment 2 (Table 2), HSV-1, 1 μM
[7] = experiment 2 (Table 2), HSV-1, 10 μM
[8] = experiment 2 (Table 2), HSV-1, 100 μM

## NC(=O)N=NC(N)=O [ADA, azodicarbonamide]
[1]
  cells viable compared to untreated BHK21/C13 cells: 95%
[2]; [3]
  % UNTREATED CONTROL (virus yield): 76%
  VIRUS YIELD (pfu/10^6 BHK cells): 6.1 × 10^8 pfu/10^6 BHK cells
  VIRUS YIELD (pfu/BHK cell): 610 pfu/BHK cell
[2]; [4]
  % UNTREATED CONTROL (virus yield): 19%
  VIRUS YIELD (pfu/10^6 BHK cells): 1.5 × 10^8 pfu/10^6 BHK cells
  VIRUS YIELD (pfu/BHK cell): 150 pfu/BHK cell
[2]; [5]
  % UNTREATED CONTROL (virus yield): 11%
  VIRUS YIELD (pfu/10^6 BHK cells): 9 × 10^6 pfu/10^6 BHK cells
  VIRUS YIELD (pfu/BHK cell): 9.0 pfu/BHK cell
[2]; [6]
  % UNTREATED CONTROL (virus yield): 15%
  VIRUS YIELD (pfu/10^6 BHK cells): 9.3 × 10^7 pfu/10^6 BHK cells
  VIRUS YIELD (pfu/BHK cell): 93 pfu/BHK cell
[2]; [7]
  % UNTREATED CONTROL (virus yield): 1.4%
  VIRUS YIELD (pfu/10^6 BHK cells): 8.5 × 10^6 pfu/10^6 BHK cells
  VIRUS YIELD (pfu/BHK cell): 8.5 pfu/BHK cell
[2]; [8]
  VIRUS YIELD (pfu/10^6 BHK cells): 1.2 × 10^6 pfu/10^6 BHK cells
  VIRUS YIELD (pfu/BHK cell): 1.2 pfu/BHK cell
HSV-2 strain HG52; HSV-2, 1 μM
  % UNTREATED CONTROL (virus yield): 13%
  VIRUS YIELD (pfu/10^6 BHK cells): 9.4 × 10^6 pfu/10^6 BHK cells
  VIRUS YIELD (pfu/BHK cell): 9.4 pfu/BHK cell
HSV-2 strain HG52; HSV-2, 10 μM
  % UNTREATED CONTROL (virus yield): 1.2%
  VIRUS YIELD (pfu/10^6 BHK cells): 8.5 × 10^5 pfu/10^6 BHK cells
  VIRUS YIELD (pfu/BHK cell): 0.85 pfu/BHK cell
HSV-2 strain HG52; HSV-2, 100 μM
  VIRUS YIELD (pfu/10^6 BHK cells): 2.3 × 10^5 pfu/10^6 BHK cells
  VIRUS YIELD (pfu/BHK cell): 0.23 pfu/BHK cell
HSV-1
  size of the plaques: reduction in the size of the plaques
HSV-2
  size of the plaques: reduction in the size of the plaques

## NC(=O)c1ccccc1SSc1ccccc1C(N)=O [DIBA, 2,2′-dithiobisbenzamide]
[1]
  cells viable compared to untreated BHK21/C13 cells: 95%
[2]; [3]
  % UNTREATED CONTROL (virus yield): 85%
  VIRUS YIELD (pfu/10^6 BHK cells): 6.8 × 10^8 pfu/10^6 BHK cells
  VIRUS YIELD (pfu/BHK cell): 680 pfu/BHK cell
[2]; [4]
  % UNTREATED CONTROL (virus yield): 20%
  VIRUS YIELD (pfu/10^6 BHK cells): 1.6 × 10^8 pfu/10^6 BHK cells
  VIRUS YIELD (pfu/BHK cell): 160 pfu/BHK cell
[2]; [5]
  % UNTREATED CONTROL (virus yield): 2.5%
  VIRUS YIELD (pfu/10^6 BHK cells): 2 × 10^7 pfu/10^6 BHK cells
  VIRUS YIELD (pfu/BHK cell): 20 pfu/BHK cell
[2]; [6]
  % UNTREATED CONTROL (virus yield): 20%
  VIRUS YIELD (pfu/10^6 BHK cells): 1.2 × 10^8 pfu/10^6 BHK cells
  VIRUS YIELD (pfu/BHK cell): 120 pfu/BHK cell
[2]; [7]
  % UNTREATED CONTROL (virus yield): 1.6%
  VIRUS YIELD (pfu/10^6 BHK cells): 9.6 × 10^6 pfu/10^6 BHK cells
  VIRUS YIELD (pfu/BHK cell): 9.6 pfu/BHK cell
[2]; [8]
  VIRUS YIELD (pfu/10^6 BHK cells): 1.9 × 10^6 pfu/10^6 BHK cells
  VIRUS YIELD (pfu/BHK cell): 1.9 pfu/BHK cell
HSV-2 strain HG52; HSV-2, 1 μM
  % UNTREATED CONTROL (virus yield): 17%
  VIRUS YIELD (pfu/10^6 BHK cells): 1.2 × 10^7 pfu/10^6 BHK cells
  VIRUS YIELD (pfu/BHK cell): 12 pfu/BHK cell
HSV-2 strain HG52; HSV-2, 10 μM
  % UNTREATED CONTROL (virus yield): 2%
  VIRUS YIELD (pfu/10^6 BHK cells): 1.4 × 10^6 pfu/10^6 BHK cells
  VIRUS YIELD (pfu/BHK cell): 1.4 pfu/BHK cell
HSV-2 strain HG52; HSV-2, 100 μM
  VIRUS YIELD (pfu/10^6 BHK cells): 3.1 × 10^5 pfu/10^6 BHK cells
  VIRUS YIELD (pfu/BHK cell): 0.31 pfu/BHK cell
HSV-1
  size of the plaques: reduction in the size of the plaques
HSV-2
  size of the plaques: reduction in the size of the plaques
